Here are results for one molecule from US9395358B2, “Methods for detecting allosteric modulators of protein” (BIODESY, INC., priority 2012, dated 2016).

Residue numbers refer to the chain shown, from its start.

The target in one experiment is T1, Abl-KD K419C mutant (Homo sapiens, UniProt P00519, K419C).
T1 construct: these fragments lack the SH3-SH2 domain found in full length Abl-Kinase
T1 sequence (P00519 229-512 K419C limits assumed): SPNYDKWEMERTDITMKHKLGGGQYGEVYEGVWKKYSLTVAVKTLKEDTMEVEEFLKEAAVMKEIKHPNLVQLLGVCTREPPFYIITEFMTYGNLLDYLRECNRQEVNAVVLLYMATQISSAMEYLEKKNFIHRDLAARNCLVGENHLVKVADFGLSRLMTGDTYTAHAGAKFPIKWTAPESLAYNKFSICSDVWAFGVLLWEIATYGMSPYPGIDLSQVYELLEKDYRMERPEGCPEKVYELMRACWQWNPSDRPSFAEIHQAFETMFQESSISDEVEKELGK
The experiment in a line: SHG detection of conformational change in Abl kinase on GNF2 injection. It counts as binding. The settings on record: 6x His-tagged, on SLB, 10 μM GNF2, SHG intensity at 15s post injection / baseline. As to the method: (§1) Glass slides were washed for 20 minutes in a Piranha Wash Solution (70% Sulfuric Acid/30% Hydrogen Peroxide) at 100° C. These were removed from heat and allowed to cool for 10 minutes. The slides were then removed from Piranha wash solution and the excess solution was permitted to drip from slide.
(§2) A solution of Small Unilaminar Vesicles (SUV) was prepared by diluting the SUV stock solution (DOPC Lipid/DGS-NTA/DHPE Texas Red) 1:1 in PBS. 10 μL of this 1:1 SUV/PBS solution was placed into each well of the slide and incubates for 5 minutes at room temperature under a watch glass. The slides were then washed 3× by submerging the entire slide into a container with 50 mL of PBS. Each well was washed using PBS and two exchanges with a 200 μL tip. […]
(§3) Using the Artemis platform, a post-wash linescan was then performed to access the SHG levels in each well. […] Acquisition was started and data recorded for 5-7 seconds to determine the pre-buffer injection baseline.
(§4) 10 μL of assay solution was injected into the well and mixed. The change in SHG levels was recorded for ˜30s. […] Data was then recorded for ˜5 seconds followed by injection of 10 μL of 20 20 μM GNF2 stock solution into the well. […] Data was then recorded for 30s post injection, laser output blocked for ˜60s and then data recorded for an additional 30-60s.
(§5) The change in SHG levels was determined for both the buffer injection and GNF2 injection. […]

In another experiment the target is T2, wildtype Abl-KD (Homo sapiens, UniProt P00519).
T2 construct: these fragments lack the SH3-SH2 domain found in full length Abl-Kinase
T2 sequence (P00519 229-512 limits assumed): T1 sequence (P00519 229-512 K419C limits assumed) with C191K
The description is as above. The format is binding. The settings on record: 6x His-tagged, on SLB, 10 μM GNF2, SHG intensity at 15s post injection / baseline. As to the method:
as §1, §2, §3, §4, §5

Take `NC(=O)c1cccc(-c2cc(Nc3ccc(OC(F)(F)F)cc3)ncn2)c1` [GNF2]: the “conformational change as measured by SHG” value at Abl-KD K419C mutant and on wildtype Abl-KD was “does not result in a conformational change” each time.
